According to US4717767A, “7-amino-3-(pyrazinylmethyl) or (pyridazinylmethyl)-cephalosporins” (Toyama Chemical Co., Ltd., priority 1982, dated 1988):

What was measured:
[1] = Acute toxicity, intravenous, mice; conditions: mouse, in vivo, mice (ICR, male, 20-24 g)
Description: LD50 values of the following test compounds were 3 g/kg or more when the compounds were intravenously administered to mice (ICR, male, body weight 20-24 g).

[2] = Urinary recovery after oral administration to mice; type: in vivo, mice (ICR, male); conditions: urine, 1 mg/mouse in 0.5% CMC, 0-6 hours, 5 mice, mean ± S.E., free carboxylic acid by bioassay with Kl. pneumoniae ATCC 10031
Procedure: A test compound was orally administered to mice (ICR, male, 4 weeks old) in an amount of 1 mg/mouse, and a urinary recovery was determined.
In the test compounds (No. 1 and No. 2), the ester group is easily removed in a living body, whereby the compounds are converted into the corresponding free carboxylic acids. Therefore, the urinary recovery was determined by quantitatively measuring the free carboxylic acids excreted into urine.
Administration method: A test compound suspended in 0.5% CMC (Carboxy Methyl Cellulose) was orally administered.
Quantitative measurement method: The amount of free carboxylic acid was measured by bioassay (a paper-disc method) using the test organism mentioned in Table 2.

SMILES	LD50 [1] [mg/kg]	dose excreted at 6 h [2] [%]
CO/N=C(\C(=O)NC1C(=O)N2C(C(=O)O)=C(Cn3nc(C)ccc3=O)CSC12)c1csc(N)n1 (centres unmarked)	≥ 3000	
Cc1ccc(=O)n(CC2=C(C(=O)O)N3C(=O)C(NC(=O)/C(=N\OCC(=O)O)c4csc(N)n4)C3SC2)n1 (centres unmarked) [Compound 3]		10.4 ± 1.1
CO/N=C(\C(=O)NC1C(=O)N2C(C(=O)O)=C(Cn3ccn(C)c(=O)c3=O)CSC12)c1csc(N)n1 (centres unmarked)	≥ 3000	
CO/N=C(\C(=O)NC1C(=O)N2C(C(=O)O)=C(Cn3[nH]c(=O)ccc3=O)CSC12)c1csc(N)n1 (centres unmarked)	≥ 3000	
CO/N=C(\C(=O)NC1C(=O)N2C(C(=O)O)=C(Cn3cc[nH]c(=O)c3=O)CSC12)c1csc(N)n1 (centres unmarked)	≥ 3000	
